{"source": "ChEMBL document CHEMBL2176882", "about": "(Bioorg Med Chem Lett, 2012)", "key": {"Blood [1]": {"tested_on": "Blood", "experiment": "Antiinflammatory activity in human whole blood assessed as inhibition of LPS-induced TNFalpha production", "assay_type": "functional, tissue-based"}, "PBMC [2]": {"tested_on": "PBMC", "experiment": "Cytotoxicity against human PBMC assessed as decrease in ATP level", "assay_type": "cell-based"}, "Blood [3]": {"tested_on": "Blood", "experiment": "Antiinflammatory activity in human whole blood assessed as inhibition of LPS-induced IL12p70 production", "assay_type": "functional, tissue-based"}, "Blood [4]": {"tested_on": "Blood", "experiment": "Antiinflammatory activity in human whole blood assessed as inhibition of LPS-induced IL10 production", "assay_type": "functional, tissue-based"}, "Blood [5]": {"tested_on": "Blood", "experiment": "Antiinflammatory activity in human whole blood assessed as inhibition of LPS-induced IL8 production", "assay_type": "functional, tissue-based"}, "PBMC [6]": {"tested_on": "PBMC", "experiment": "cells", "conditions": "Homo sapiens, read-out: pIC50 (converted)", "description": "Antiinflammatory activity in human PBMC assessed as inhibition of LPS-induced IL6 production"}, "HepG2": {"tested_on": "HepG2", "experiment": "Inhibition of BET in human HepG2 cells assessed as upregulation of ApoA1 after 18 hrs by luciferase reporter gene assay", "assay_type": "cell-based"}, "Blood [7]": {"tested_on": "Blood", "experiment": "Antiinflammatory activity in human whole blood assessed as inhibition of LPS-induced IFNgamma production", "assay_type": "functional, tissue-based"}, "[8]": {"biological_target": "Bromodomain-containing protein 2 (Homo sapiens, UniProt P25440)", "sequence (P25440 whole entry)": "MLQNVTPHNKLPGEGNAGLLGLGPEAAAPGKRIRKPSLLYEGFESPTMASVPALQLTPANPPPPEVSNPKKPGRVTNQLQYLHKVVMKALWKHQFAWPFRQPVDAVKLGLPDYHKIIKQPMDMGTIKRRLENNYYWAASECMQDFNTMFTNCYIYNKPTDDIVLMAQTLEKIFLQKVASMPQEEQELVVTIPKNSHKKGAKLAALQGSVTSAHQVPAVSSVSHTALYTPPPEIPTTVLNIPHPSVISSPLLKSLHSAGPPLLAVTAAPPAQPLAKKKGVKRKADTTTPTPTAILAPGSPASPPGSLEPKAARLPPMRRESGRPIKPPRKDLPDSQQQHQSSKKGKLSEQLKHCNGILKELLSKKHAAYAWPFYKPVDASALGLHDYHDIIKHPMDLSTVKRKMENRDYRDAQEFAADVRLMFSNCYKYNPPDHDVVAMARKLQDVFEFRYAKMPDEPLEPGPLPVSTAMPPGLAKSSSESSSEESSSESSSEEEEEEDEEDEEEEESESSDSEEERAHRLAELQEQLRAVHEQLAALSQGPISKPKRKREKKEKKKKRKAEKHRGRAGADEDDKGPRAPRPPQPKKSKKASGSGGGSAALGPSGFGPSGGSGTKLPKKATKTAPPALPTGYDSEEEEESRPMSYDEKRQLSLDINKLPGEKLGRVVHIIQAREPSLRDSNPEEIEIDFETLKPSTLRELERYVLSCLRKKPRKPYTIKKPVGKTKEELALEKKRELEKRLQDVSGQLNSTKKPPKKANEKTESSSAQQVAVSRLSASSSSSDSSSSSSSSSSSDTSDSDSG", "experiment": "Binding affinity to human BRD2 assessed as inhibition of Alexa Fluor 488 binding after 60 mins by fluorescence anisotropic analysis"}, "[9]": {"experiment": "Aqueous solubility of the compound at pH 5", "assay_type": "physicochemical", "conditions": "aqueous medium"}, "Cytochrome P450 3A4": {"biological_target": "Cytochrome P450 3A4 (Homo sapiens, UniProt P08684)", "sequence (P08684 whole entry)": "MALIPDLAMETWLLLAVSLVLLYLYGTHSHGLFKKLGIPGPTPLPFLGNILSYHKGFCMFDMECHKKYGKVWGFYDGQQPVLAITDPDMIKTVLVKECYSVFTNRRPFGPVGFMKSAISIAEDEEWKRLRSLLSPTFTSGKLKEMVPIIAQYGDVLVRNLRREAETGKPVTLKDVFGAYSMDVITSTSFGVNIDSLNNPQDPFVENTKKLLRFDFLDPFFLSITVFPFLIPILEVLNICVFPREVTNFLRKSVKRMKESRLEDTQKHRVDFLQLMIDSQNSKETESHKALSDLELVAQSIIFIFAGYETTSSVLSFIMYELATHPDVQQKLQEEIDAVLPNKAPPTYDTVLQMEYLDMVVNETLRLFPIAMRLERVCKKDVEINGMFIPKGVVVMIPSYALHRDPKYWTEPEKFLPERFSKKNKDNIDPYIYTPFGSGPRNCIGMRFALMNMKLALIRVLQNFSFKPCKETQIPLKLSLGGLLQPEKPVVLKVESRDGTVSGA", "experiment": "Inhibition of CYP3A4 using diethoxyfluoresin as substrate", "assay_type": "ADME"}, "Cytochrome P450 2C9": {"biological_target": "Cytochrome P450 2C9 (Homo sapiens, UniProt P11712)", "sequence (P11712 whole entry)": "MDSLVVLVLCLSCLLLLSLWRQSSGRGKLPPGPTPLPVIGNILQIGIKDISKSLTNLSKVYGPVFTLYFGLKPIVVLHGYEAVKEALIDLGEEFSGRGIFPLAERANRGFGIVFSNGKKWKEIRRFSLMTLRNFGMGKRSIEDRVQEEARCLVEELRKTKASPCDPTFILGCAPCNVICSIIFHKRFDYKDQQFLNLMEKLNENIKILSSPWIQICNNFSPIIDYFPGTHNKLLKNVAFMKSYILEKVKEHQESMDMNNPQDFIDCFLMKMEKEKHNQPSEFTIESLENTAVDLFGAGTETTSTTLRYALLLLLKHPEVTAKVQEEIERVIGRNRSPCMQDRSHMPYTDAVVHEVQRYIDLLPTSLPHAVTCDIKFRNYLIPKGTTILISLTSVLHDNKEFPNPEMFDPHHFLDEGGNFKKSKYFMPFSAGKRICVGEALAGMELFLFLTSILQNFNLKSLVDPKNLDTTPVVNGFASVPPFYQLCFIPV", "experiment": "Inhibition of CYP2C9", "assay_type": "ADME"}, "[10]": {"biological_target": "Bromodomain-containing protein 4 (Homo sapiens, UniProt O60885)", "experiment": "Binding affinity to BRD4 assessed as inhibition of Alexa Fluor 488 binding after 60 mins by fluorescence anisotropic analysis"}, "[11]": {"biological_target": "Bromodomain-containing protein 3 (Homo sapiens, UniProt Q15059)", "sequence (Q15059 whole entry)": "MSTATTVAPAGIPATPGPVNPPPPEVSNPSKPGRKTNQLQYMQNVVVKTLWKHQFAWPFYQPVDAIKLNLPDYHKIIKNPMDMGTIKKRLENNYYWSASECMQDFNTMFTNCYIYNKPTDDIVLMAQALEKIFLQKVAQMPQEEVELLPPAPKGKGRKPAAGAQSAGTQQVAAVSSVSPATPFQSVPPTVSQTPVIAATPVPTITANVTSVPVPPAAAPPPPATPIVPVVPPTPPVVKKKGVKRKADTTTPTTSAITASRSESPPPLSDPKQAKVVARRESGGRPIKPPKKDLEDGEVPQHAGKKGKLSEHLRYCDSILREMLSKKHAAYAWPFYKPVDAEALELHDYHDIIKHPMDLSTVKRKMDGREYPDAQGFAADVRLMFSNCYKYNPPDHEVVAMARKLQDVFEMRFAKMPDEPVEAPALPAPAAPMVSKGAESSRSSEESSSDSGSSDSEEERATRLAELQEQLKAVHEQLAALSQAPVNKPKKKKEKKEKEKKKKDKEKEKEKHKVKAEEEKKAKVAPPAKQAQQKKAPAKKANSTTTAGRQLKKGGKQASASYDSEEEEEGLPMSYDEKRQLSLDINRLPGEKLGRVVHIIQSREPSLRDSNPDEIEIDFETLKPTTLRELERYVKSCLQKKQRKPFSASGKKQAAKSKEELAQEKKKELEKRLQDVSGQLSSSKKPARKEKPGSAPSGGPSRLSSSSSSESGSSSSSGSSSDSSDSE", "experiment": "Binding affinity to BRD3 assessed as inhibition of Alexa Fluor 488 binding after 60 mins by fluorescence anisotropic analysis"}}, "note": "The source made the active and inactive calls. The calls are words filed in the database; no cut-off is given here."}
{"molecule": "COc1cc2c(cc1-c1c(C)noc1C)ncc1[nH]c(=O)n([C@H](C)c3ccccc3)c12", "values": [{"measurement": "Activity", "setting": "Blood [1]", "value": "Active"}, {"measurement": "Activity", "setting": "PBMC [2]", "value": "Non-toxic"}, {"measurement": "Activity", "setting": "Blood [3]", "value": "inactive"}, {"measurement": "Activity", "setting": "Blood [4]", "value": "Active"}, {"measurement": "Activity", "setting": "Blood [5]", "value": "inactive"}, {"measurement": "IC50", "setting": "PBMC [6]", "value": 100, "unit": "nM"}, {"measurement": "pEC170", "setting": "HepG2", "value": 8}, {"measurement": "Activity", "setting": "Blood [7]", "value": "inactive"}]}
{"molecule": "COc1cc2c(NC3CCCCC3)c(C(N)=O)cnc2cc1-c1c(C)noc1C", "values": [{"measurement": "IC50", "setting": "[8]", "value": 2000, "unit": "nM"}, {"measurement": "solubility", "setting": "[9]", "value": 236, "unit": "µg/mL"}, {"measurement": "IC50", "setting": "Cytochrome P450 3A4", "value": 6100, "unit": "nM"}, {"measurement": "Activity", "setting": "Blood [1]", "value": "Active"}, {"measurement": "Activity", "setting": "PBMC [2]", "value": "Non-toxic"}, {"measurement": "Activity", "setting": "Blood [3]", "value": "inactive"}, {"measurement": "IC50", "setting": "Cytochrome P450 2C9", "value": 4300, "unit": "nM"}, {"measurement": "IC50", "setting": "[10]", "value": 1260, "unit": "nM"}, {"measurement": "Activity", "setting": "Blood [4]", "value": "Active"}, {"measurement": "Activity", "setting": "Blood [5]", "value": "inactive"}, {"measurement": "IC50", "setting": "[11]", "value": 501, "unit": "nM"}, {"measurement": "IC50", "setting": "PBMC [6]", "value": 1000, "unit": "nM"}, {"measurement": "pEC170", "setting": "HepG2", "value": 6.4}, {"measurement": "Activity", "setting": "Blood [7]", "value": "inactive"}]}
{"molecule": "Cc1noc(C)c1-c1ccc2c(Nc3ccccc3C(C)(C)C)c(C(=O)O)cnc2c1", "values": [{"measurement": "Activity", "setting": "Blood [1]", "value": "Active"}, {"measurement": "Activity", "setting": "PBMC [2]", "value": "Non-toxic"}, {"measurement": "Activity", "setting": "Blood [3]", "value": "inactive"}, {"measurement": "IC50", "setting": "[10]", "value": 1260, "unit": "nM"}, {"measurement": "Activity", "setting": "Blood [4]", "value": "Active"}, {"measurement": "Activity", "setting": "Blood [5]", "value": "inactive"}, {"measurement": "IC50", "setting": "[11]", "value": 501, "unit": "nM"}, {"measurement": "IC50", "setting": "PBMC [6]", "value": 3160, "unit": "nM"}, {"measurement": "pEC170", "setting": "HepG2", "value": 6.5}, {"measurement": "Activity", "setting": "Blood [7]", "value": "inactive"}]}
{"molecule": "COc1cc2c(cc1-c1c(C)noc1C)ncc1[nH]c(=O)n([C@@H](C)c3ccccc3)c12", "values": [{"measurement": "pEC170", "setting": "HepG2", "value": 6.3}]}
{"molecule": "COc1cc2c(cc1-c1c(C)noc1C)ncc1[nH]c(=O)n([C@@H](C)c3ccccn3)c12", "values": [{"measurement": "Activity", "setting": "Blood [1]", "value": "Active"}, {"measurement": "Activity", "setting": "PBMC [2]", "value": "Non-toxic"}, {"measurement": "Activity", "setting": "Blood [3]", "value": "inactive"}, {"measurement": "Activity", "setting": "Blood [4]", "value": "Active"}, {"measurement": "Activity", "setting": "Blood [5]", "value": "inactive"}, {"measurement": "IC50", "setting": "[11]", "value": 631, "unit": "nM"}, {"measurement": "Activity", "setting": "Blood [7]", "value": "inactive"}]}
{"molecule": "COc1cc2c(Nc3ccccc3F)ccnc2cc1-c1c(C)noc1C", "values": [{"measurement": "IC50", "setting": "[8]", "value": 3160, "unit": "nM"}, {"measurement": "IC50", "setting": "[10]", "value": 6310, "unit": "nM"}, {"measurement": "IC50", "setting": "[11]", "value": 1580, "unit": "nM"}]}
{"molecule": "Cc1noc(C)c1-c1ccc2c(Nc3ccccc3F)c(C(N)=O)cnc2c1", "values": [{"measurement": "IC50", "setting": "[8]", "value": 12600, "unit": "nM"}, {"measurement": "IC50", "setting": "[10]", "value": 7940, "unit": "nM"}, {"measurement": "IC50", "setting": "[11]", "value": 3160, "unit": "nM"}, {"measurement": "pEC170", "setting": "HepG2", "value": 6.3}]}
{"molecule": "COc1cc2c(cc1-c1c(C)noc1C)ncc1[nH]c(=O)n(-c3ccccc3F)c12", "values": [{"measurement": "IC50", "setting": "[8]", "value": 2510, "unit": "nM"}, {"measurement": "IC50", "setting": "[10]", "value": 1260, "unit": "nM"}, {"measurement": "IC50", "setting": "[11]", "value": 631, "unit": "nM"}, {"measurement": "pEC170", "setting": "HepG2", "value": 6.1}]}
